From US20250129430A1, “HIGH ATP-AFFINITY PROTEIN AS THERAPEUTIC TARGET FOR INTRACTABLE CANCER MOLECULAR SUBTYPES AND INHIBITOR THEREOF” (VeraVerse Co., Ltd., priority 2021, published 2025)

Each compound was assayed on AGS (assay: Cell viability drug screen, 12-point dose-response AUC). Settings: AGS cells (non-SEM subtype); 72 hours.
Format: cell-based, human
Method: (§1) An FDA-approved small-molecule pharmacological compound (#L1300) and an anticancer compound for research (#L2000) were purchased from Selecckchem and a 10 mM solution was prepared in DMSO. A total of 1,345 compounds were tested the cell viability of the seven EMT gastric cancer cell lines.
(§2) Cells cultured for cell-based drug assay were inoculated into a 96-well white optical plate (Corning) at 5×10^3 cells per well. After 24 hours after inoculation, a 2.5 MJT (primary screen) or a half-log 12-serial diluent (secondary screen) of the pharmacological compound contained in DMSO is added to the cells with a robot using a BioMek FXp liquid processor (Beckman) to add to the cells at 50 mM. The final drug concentration in the 5 ns range and the DMSO specification control (0.5%) were calculated. The cells were then further incubated at 37° C. in a 5% CO2 incubator for 72 hours prior to measuring cell viability using the extra-GLO assay kit (Promega). The luminescent properties were measured after 15 min incubation at room temperature using a plate stacker equipped with a plate stacker. The normalized viability for the DMSO-based control was measured to generate a cell line-specific 12-point dose-response curve for each pharmacological compound, and then the area under the curve (AUC) was calculated using a trapezoidal method. […] The results of the repeated experiments were averaged to generate AUC values for each cell line for each compound.

Structure (SMILES) | Average Area Under the Viability Curve (AUC), AUC norm value
NC(=O)Nc1cc(-c2cccc(F)c2)sc1C(=O)N[C@H]1CCCNC1 [AZD7762] | −0.4403

The compounds below were run on Hs746T in the same assay as above. Settings: Hs746T cells (SEM subtype); 72 hours.
Format: cell-based, human
Method: as §1, §2

Structure (SMILES) | Average Area Under the Viability Curve (AUC), AUC norm value
NC(=O)Nc1cc(-c2cccc(F)c2)sc1C(=O)N[C@H]1CCCNC1 [AZD7762] | 1.376

These compounds were tested on KATO3 in the same assay as above. Settings: KATO3 cells; 72 hours.
Format: cell-based, human
Method: as §1, §2

Structure (SMILES) | Average Area Under the Viability Curve (AUC), AUC norm value
NC(=O)Nc1cc(-c2cccc(F)c2)sc1C(=O)N[C@H]1CCCNC1 [AZD7762] | 2.891

These compounds were tested on MKN1 in the same assay as above. Settings: MKN1 cells; 72 hours.
Format: cell-based, human
Method: as §1, §2

Structure (SMILES) | Average Area Under the Viability Curve (AUC), AUC norm value
NC(=O)Nc1cc(-c2cccc(F)c2)sc1C(=O)N[C@H]1CCCNC1 [AZD7762] | −0.01906

These compounds were tested on MKN28 in the same assay as above. Settings: MKN28 cells; 72 hours.
Format: cell-based, human
Method: as §1, §2

Structure (SMILES) | Average Area Under the Viability Curve (AUC), AUC norm value
NC(=O)Nc1cc(-c2cccc(F)c2)sc1C(=O)N[C@H]1CCCNC1 [AZD7762] | −0.3131

The compounds below were run on MKN45 in the same assay as above. Settings: MKN45 cells (non-SEM subtype); 72 hours.
Format: cell-based, human
Method: as §1, §2

Structure (SMILES) | Average Area Under the Viability Curve (AUC), AUC norm value
NC(=O)Nc1cc(-c2cccc(F)c2)sc1C(=O)N[C@H]1CCCNC1 [AZD7762] | −0.3384

These compounds were tested on MKN74 in the same assay as above. Settings: MKN74 cells; 72 hours.
Format: cell-based, human
Method: as §1, §2

Structure (SMILES) | Average Area Under the Viability Curve (AUC), AUC norm value
NC(=O)Nc1cc(-c2cccc(F)c2)sc1C(=O)N[C@H]1CCCNC1 [AZD7762] | −0.4773

The compounds below were run on NCC19 in the same assay as above. Settings: NCC19 cells; 72 hours.
Format: cell-based, human
Method: as §1, §2

Structure (SMILES) | Average Area Under the Viability Curve (AUC), AUC norm value
NC(=O)Nc1cc(-c2cccc(F)c2)sc1C(=O)N[C@H]1CCCNC1 [AZD7762] | 2.796

These compounds were tested on NCC20 in the same assay as above. Settings: NCC20 cells; 72 hours.
Format: cell-based, human
Method: as §1, §2

Structure (SMILES) | Average Area Under the Viability Curve (AUC), AUC norm value
NC(=O)Nc1cc(-c2cccc(F)c2)sc1C(=O)N[C@H]1CCCNC1 [AZD7762] | −0.4167

The compounds below were run on NCC24 in the same assay as above. Settings: NCC24 cells; 72 hours.
Format: cell-based, human
Method: as §1, §2

Structure (SMILES) | Average Area Under the Viability Curve (AUC), AUC norm value
NC(=O)Nc1cc(-c2cccc(F)c2)sc1C(=O)N[C@H]1CCCNC1 [AZD7762] | 1.107

The compounds below were run on NCC59 in the same assay as above. Settings: NCC59 cells; 72 hours.
Format: cell-based, human
Method: as §1, §2

Structure (SMILES) | Average Area Under the Viability Curve (AUC), AUC norm value
NC(=O)Nc1cc(-c2cccc(F)c2)sc1C(=O)N[C@H]1CCCNC1 [AZD7762] | 2.107

The compounds below were run on NCI_N87 in the same assay as above. Settings: NCI_N87 cells; 72 hours.
Format: cell-based, human
Method: as §1, §2

Structure (SMILES) | Average Area Under the Viability Curve (AUC), AUC norm value
NC(=O)Nc1cc(-c2cccc(F)c2)sc1C(=O)N[C@H]1CCCNC1 [AZD7762] | 0.8405

The compounds below were run on OCUM1 in the same assay as above. Settings: OCUM1 cells; 72 hours.
Format: cell-based, human
Method: as §1, §2

Structure (SMILES) | Average Area Under the Viability Curve (AUC), AUC norm value
NC(=O)Nc1cc(-c2cccc(F)c2)sc1C(=O)N[C@H]1CCCNC1 [AZD7762] | 0.511

What follows are compounds tested on SK4 in the same assay as above. Settings: SK4 cells (SEM subtype); 72 hours.
Format: cell-based, human
Method: as §1, §2

Structure (SMILES) | Average Area Under the Viability Curve (AUC), AUC norm value
NC(=O)Nc1cc(-c2cccc(F)c2)sc1C(=O)N[C@H]1CCCNC1 [AZD7762] | −0.9696

These compounds were tested on SNU16 in the same assay as above. Settings: SNU16 cells; 72 hours.
Format: cell-based, human
Method: as §1, §2

Structure (SMILES) | Average Area Under the Viability Curve (AUC), AUC norm value
NC(=O)Nc1cc(-c2cccc(F)c2)sc1C(=O)N[C@H]1CCCNC1 [AZD7762] | −1.119

These compounds were tested on SNU1750 in the same assay as above. Settings: SNU1750 cells (SEM subtype); 72 hours.
Format: cell-based, human
Method: as §1, §2

Structure (SMILES) | Average Area Under the Viability Curve (AUC), AUC norm value
NC(=O)Nc1cc(-c2cccc(F)c2)sc1C(=O)N[C@H]1CCCNC1 [AZD7762] | −0.9031

Each compound was assayed on SNU1967 in the same assay as above. Settings: SNU1967 cells; 72 hours.
Format: cell-based, human
Method: as §1, §2

Structure (SMILES) | Average Area Under the Viability Curve (AUC), AUC norm value
NC(=O)Nc1cc(-c2cccc(F)c2)sc1C(=O)N[C@H]1CCCNC1 [AZD7762] | −0.3626

The compounds below were run on SNU1 in the same assay as above. Settings: SNU1 cells; 72 hours.
Format: cell-based, human
Method: as §1, §2

Structure (SMILES) | Average Area Under the Viability Curve (AUC), AUC norm value
NC(=O)Nc1cc(-c2cccc(F)c2)sc1C(=O)N[C@H]1CCCNC1 [AZD7762] | −0.2026

Each compound was assayed on SNU216 in the same assay as above. Settings: SNU216 cells (non-SEM subtype); 72 hours.
Format: cell-based, human
Method: as §1, §2

Structure (SMILES) | Average Area Under the Viability Curve (AUC), AUC norm value
NC(=O)Nc1cc(-c2cccc(F)c2)sc1C(=O)N[C@H]1CCCNC1 [AZD7762] | 0.7004

The compounds below were run on SNU484 in the same assay as above. Settings: SNU484 cells (SEM subtype); 72 hours.
Format: cell-based, human
Method: as §1, §2

Structure (SMILES) | Average Area Under the Viability Curve (AUC), AUC norm value
NC(=O)Nc1cc(-c2cccc(F)c2)sc1C(=O)N[C@H]1CCCNC1 [AZD7762] | 0

Each compound was assayed on SNU601 in the same assay as above. Settings: SNU601 cells; 72 hours.
Format: cell-based, human
Method: as §1, §2

Structure (SMILES) | Average Area Under the Viability Curve (AUC), AUC norm value
NC(=O)Nc1cc(-c2cccc(F)c2)sc1C(=O)N[C@H]1CCCNC1 [AZD7762] | −0.957

The compounds below were run on SNU620 in the same assay as above. Settings: SNU620 cells; 72 hours.
Format: cell-based, human
Method: as §1, §2

Structure (SMILES) | Average Area Under the Viability Curve (AUC), AUC norm value
NC(=O)Nc1cc(-c2cccc(F)c2)sc1C(=O)N[C@H]1CCCNC1 [AZD7762] | 0.2258

The compounds below were run on SNU638 in the same assay as above. Settings: SNU638 cells; 72 hours.
Format: cell-based, human
Method: as §1, §2

Structure (SMILES) | Average Area Under the Viability Curve (AUC), AUC norm value
NC(=O)Nc1cc(-c2cccc(F)c2)sc1C(=O)N[C@H]1CCCNC1 [AZD7762] | 1.404

What follows are compounds tested on SNU668 in the same assay as above. Settings: SNU668 cells (SEM subtype); 72 hours.
Format: cell-based, human
Method: as §1, §2

Structure (SMILES) | Average Area Under the Viability Curve (AUC), AUC norm value
NC(=O)Nc1cc(-c2cccc(F)c2)sc1C(=O)N[C@H]1CCCNC1 [AZD7762] | 1.537

These compounds were tested on SNU719 in the same assay as above. Settings: SNU719 cells; 72 hours.
Format: cell-based, human
Method: as §1, §2

Structure (SMILES) | Average Area Under the Viability Curve (AUC), AUC norm value
NC(=O)Nc1cc(-c2cccc(F)c2)sc1C(=O)N[C@H]1CCCNC1 [AZD7762] | 3.771

What follows are compounds tested on YCC11 in the same assay as above. Settings: YCC11 cells (SEM subtype); 72 hours.
Format: cell-based, human
Method: as §1, §2

Structure (SMILES) | Average Area Under the Viability Curve (AUC), AUC norm value
NC(=O)Nc1cc(-c2cccc(F)c2)sc1C(=O)N[C@H]1CCCNC1 [AZD7762] | −0.9757

These compounds were tested on YCC2 in the same assay as above. Settings: YCC2 cells; 72 hours.
Format: cell-based, human
Method: as §1, §2

Structure (SMILES) | Average Area Under the Viability Curve (AUC), AUC norm value
NC(=O)Nc1cc(-c2cccc(F)c2)sc1C(=O)N[C@H]1CCCNC1 [AZD7762] | 0.451

The compounds below were run on YCC3 in the same assay as above. Settings: YCC3 cells; 72 hours.
Format: cell-based, human
Method: as §1, §2

Structure (SMILES) | Average Area Under the Viability Curve (AUC), AUC norm value
NC(=O)Nc1cc(-c2cccc(F)c2)sc1C(=O)N[C@H]1CCCNC1 [AZD7762] | 1.638

What follows are compounds tested on FU97 in the same assay as above. Settings: FU97 cells; 72 hours.
Format: cell-based, human
Design: Average Area Under the Viability Curve (AUC), AUC norm value: scale not given here
Method: Cells cultured for cell-based drug assay were inoculated into a 96-well white optical plate (Corning) at 5×10^3 cells per well. After 24 hours after inoculation, a 2.5 MJT (primary screen) or a half-log 12-serial diluent (secondary screen) of the pharmacological compound contained in DMSO is added to the cells with a robot using a BioMek FXp liquid processor (Beckman) to add to the cells at 50 mM. The final drug concentration in the 5 ns range and the DMSO specification control (0.5%) were calculated. The cells were then further incubated at 37° C. in a 5% CO2 incubator for 72 hours prior to measuring cell viability using the extra-GLO assay kit (Promega). The luminescent properties were measured after 15 min incubation at room temperature using a plate stacker equipped with a plate stacker. The normalized viability for the DMSO-based control was measured to generate a cell line-specific 12-point dose-response curve for each pharmacological compound, and then the area under the curve (AUC) was calculated using a trapezoidal method.

Structure (SMILES) | Average Area Under the Viability Curve (AUC), AUC norm value
NC(=O)Nc1cc(-c2cccc(F)c2)sc1C(=O)N[C@H]1CCCNC1 [AZD7762] | −0.7616
